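Following 48 hours of exposure in 96-well plates, responses at five concentrations were used to interpolate endpoints linearly. TGI is the concentration that stops growth completely.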
Key:
Experiment in all cases: growth of human tumour cells (NCI), 48 h
HS 578T breast = system: HS 578T breast
MALME-3M melanoma = system: MALME-3M melanoma
DU-145 prostate = system: DU-145 prostate
NCI/ADR-RES ovarian = system: NCI/ADR-RES ovarian
NCI-H23 lung = system: NCI-H23 lung
OVCAR-4 ovarian = system: OVCAR-4 ovarian
RXF 393 renal = system: RXF 393 renal
HCT-15 colon = system: HCT-15 colon
SK-OV-3 ovarian = system: SK-OV-3 ovarian
MCF7 breast = system: MCF7 breast
CCRF-CEM leukemia = system: CCRF-CEM leukemia
SK-MEL-2 melanoma = system: SK-MEL-2 melanoma
A549 NSCLC = system: A549 NSCLC
OVCAR-5 ovarian = system: OVCAR-5 ovarian
LOX IMVI melanoma = system: LOX IMVI melanoma
MDA-N = system: MDA-N
SK-MEL-5 melanoma = system: SK-MEL-5 melanoma
RPMI-8226 leukemia = system: RPMI-8226 leukemia
KM12 colon = system: KM12 colon
T-47D breast = system: T-47D breast
TK-10 renal = system: TK-10 renal
CAKI-1 renal = system: CAKI-1 renal
COLO 205 colon = system: COLO 205 colon
HCC-2998 colon = system: HCC-2998 colon
UACC-62 melanoma = system: UACC-62 melanoma
HCT-116 colon = system: HCT-116 colon
SF-539 CNS = system: SF-539 CNS
A498 renal = system: A498 renal
PC-3 prostate = system: PC-3 prostate
OVCAR-3 ovarian = system: OVCAR-3 ovarian
U251 CNS = system: U251 CNS
SK-MEL-28 melanoma = system: SK-MEL-28 melanoma
ACHN renal = system: ACHN renal
SF-295 CNS = system: SF-295 CNS
OVCAR-8 ovarian = system: OVCAR-8 ovarian
HT29 colon = system: HT29 colon
SN12C renal = system: SN12C renal
HL-60(TB) leukemia = system: HL-60(TB) leukemia
BT-549 breast = system: BT-549 breast
HOP-92 NSCLC = system: HOP-92 NSCLC
UACC-257 melanoma = system: UACC-257 melanoma
MOLT-4 leukemia = system: MOLT-4 leukemia
SF-268 CNS = system: SF-268 CNS
SW-620 colon = system: SW-620 colon
M14 melanoma = system: M14 melanoma
NCI-H522 lung = system: NCI-H522 lung
IGROV1 ovarian = system: IGROV1 ovarian
MDA-MB-231 breast = system: MDA-MB-231 breast
NCI-H460 lung = system: NCI-H460 lung
MDA-MB-435 = system: MDA-MB-435
786-0 renal = system: 786-0 renal
EKVX NSCLC = system: EKVX NSCLC
HOP-62 NSCLC = system: HOP-62 NSCLC
SNB-19 CNS = system: SNB-19 CNS
NCI-H226 lung = system: NCI-H226 lung
UO-31 renal = system: UO-31 renal
K-562 leukemia = system: K-562 leukemia
SNB-75 CNS = system: SNB-75 CNS
SR leukemia = system: SR leukemia

Measured: TGI

CCCCCC(C)C[C@H]1CO[C@H](c2ccc[nH]2)N[C@H]1C(=O)OC (some centres undefined)
not listed: NCI-H226 lung | UO-31 renal | K-562 leukemia | SNB-75 CNS | SR leukemia
> 100 µM: all other assays above

O=C(c1cccs1)N(C(=O)N1CCC(c2ccccc2)CC1)c1ccccc1
93.5 µM: T-47D breast
76.9 µM: UO-31 renal
91.2 µM: HL-60(TB) leukemia
72.2 µM: COLO 205 colon
38.8 µM: SK-MEL-5 melanoma
98.3 µM: HOP-62 NSCLC
70.3 µM: RPMI-8226 leukemia
52.9 µM: EKVX NSCLC
50.9 µM: KM12 colon
not listed: OVCAR-4 ovarian | A549 NSCLC | HCC-2998 colon | HOP-92 NSCLC | NCI-H522 lung | SNB-75 CNS | SR leukemia
> 100 µM: all other assays above

COc1nc2c(c(=O)n1C)N[C@@H]1[C@@H](O)[C@H](O)CO[C@@H]1N2
not listed: NCI-H23 lung | HCC-2998 colon | ACHN renal | HOP-92 NSCLC | MDA-MB-231 breast
> 100 µM: all other assays above

CSc1n[n+](C)cc(N)c1N
98 µM: HOP-92 NSCLC
97.7 µM: SNB-19 CNS
not listed: HS 578T breast | DU-145 prostate | RXF 393 renal | SF-268 CNS | NCI-H460 lung
> 100 µM: all other assays above
